According to ChEMBL document CHEMBL1201862, “PubChem BioAssay data set” (2004):
Active and inactive are the calls of the source.

What was measured:
[1] = Luminescence-based cell-based high throughput dose response assay to identify activators of the DAF-12 from the parasite S. stercoralis (ssDAF-12).; assay type: functional
[2] = molecular target: T1, Oxysterols receptor LXR-beta (Homo sapiens, UniProt P55055); test: LXR agonists, Gal4 luciferase reporter, dose response, counter-screen for ssDAF-12 agonist project, cell-based, luminescence, HEK293, S. stercoralis campaign (AID 720737); assay type: functional; details: read-out: IC50 (the source's name)
T1 sequence (P55055 whole entry): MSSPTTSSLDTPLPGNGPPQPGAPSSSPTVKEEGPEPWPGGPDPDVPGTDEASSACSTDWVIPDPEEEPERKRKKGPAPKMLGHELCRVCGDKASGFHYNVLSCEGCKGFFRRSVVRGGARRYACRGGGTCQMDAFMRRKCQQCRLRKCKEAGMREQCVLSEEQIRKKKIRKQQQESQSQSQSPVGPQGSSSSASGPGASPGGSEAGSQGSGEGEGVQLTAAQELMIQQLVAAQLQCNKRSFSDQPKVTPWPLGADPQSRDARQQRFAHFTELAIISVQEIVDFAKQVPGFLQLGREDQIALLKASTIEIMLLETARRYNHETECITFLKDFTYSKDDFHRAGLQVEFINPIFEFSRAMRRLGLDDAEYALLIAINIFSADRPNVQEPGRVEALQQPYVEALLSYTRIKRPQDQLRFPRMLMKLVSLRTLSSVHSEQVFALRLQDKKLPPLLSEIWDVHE

[3] = Jurkat T cell cytotoxicity, dose response, cytotoxicity control for P. falciparum gametocyte viability project, luminescence (AID 1117277); assay type: functional, cell-based;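 also: potency reflects loss of cellular ATP meaning fewer viable cells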
[4] = P. falciparum late gametocyte killing, dose response, luminescence (AID 1117278); assay type: functional, cell-based;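 also: gametocytes exposed to compound for 24 hours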
[5] = M. tuberculosis growth inhibition, HTS (AID 449762); assay type: functional
[6] = molecular target: Disintegrin and metalloproteinase domain-containing protein 17 (Homo sapiens, UniProt P78536); test: ADAM17 protease inhibitors, dose response, counter-screen for ADAM10 exosite inhibitor project, biochemical, quenched FRET substrate (AID 743253)
[7] = molecular target: T2, Heat shock factor protein 1 (Mus musculus, UniProt P38532); test: HSF1 potentiators in luciferase reporter cells, confirmation, cell-based, NIH3T3, luminescence, dose retest (AID 435004); assay type: functional;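 also: stress induced by proteasome inhibitor MG132 added 30 min after compound; luciferase reporter driven by HSF1 response element in NIH3T3 cells; actives raise luminescence as potentiators of the MG132 stress response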
T2 sequence (P38532 whole entry): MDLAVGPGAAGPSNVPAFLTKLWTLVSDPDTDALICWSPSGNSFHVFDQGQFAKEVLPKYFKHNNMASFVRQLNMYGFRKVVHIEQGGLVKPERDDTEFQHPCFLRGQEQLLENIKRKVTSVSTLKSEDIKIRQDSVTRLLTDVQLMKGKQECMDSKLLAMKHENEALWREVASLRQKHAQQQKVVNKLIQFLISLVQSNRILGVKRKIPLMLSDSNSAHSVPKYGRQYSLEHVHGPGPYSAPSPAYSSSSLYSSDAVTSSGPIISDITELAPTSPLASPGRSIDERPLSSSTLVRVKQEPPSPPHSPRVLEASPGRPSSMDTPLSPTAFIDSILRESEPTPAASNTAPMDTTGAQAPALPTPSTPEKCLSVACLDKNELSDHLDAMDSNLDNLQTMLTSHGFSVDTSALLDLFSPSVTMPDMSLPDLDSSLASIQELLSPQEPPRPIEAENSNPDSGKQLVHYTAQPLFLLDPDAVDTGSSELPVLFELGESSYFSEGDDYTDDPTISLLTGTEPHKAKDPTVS

[8] = ADAM10 inhibitors, peptide cleavage, dose response, biochemical, QFRET (AID 743254);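 also: ADAM10 enzyme with the DM2 quenched FRET peptide as substrate; EDANS fluorescence gain as the protease cuts the substrate; inhibitor potency against ADAM10 proteolytic activity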
[9] = IGROV1 ovarian cancer cell cytotoxicity, dose response, PAX8 inhibitor project, plate reader, dry powder samples (AID 743043); assay type: functional, cell-based; details: IGROV-1
[10] = A2780 ovarian cancer cell cytotoxicity, dose response, cytotoxicity control, plate reader, dry powder samples (AID 743046); assay type: functional, cell-based
[11] = molecular target: Paired box protein Pax-8 (Homo sapiens, UniProt Q06710); test: inhibitors of PAX8-driven TPO luciferase reporter, dose response, RMG-I cells, cherry-pick (AID 687027); assay type: functional, cell-based;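 also: luciferase reporter driven by Pax8 target thyroperoxidase promoter measured by SteadyGlo luminescence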
[12] = cytotoxicity in COV434 cells, dose response, cytotoxicity control for PAX8 inhibitor project, cell-based, plate reader, dry powder, SA7 (AID 743145); assay type: functional
[13] = IOSE-T80 ovarian epithelial cell cytotoxicity, dose response, cytotoxicity control for PAX8 inhibitor project, plate reader, dry powder samples (AID 743045); assay type: functional, cell-based
[14] = cytotoxicity in COV362 ovarian cancer cells, dose response, cytotoxicity control for PAX8 inhibitor project, cell-based, plate reader, dry powder, SA12 (AID 743144); assay type: functional
[15] = NIH:OVCAR-3 ovarian cancer cell cytotoxicity, dose response, PAX8 inhibitor project, plate reader, dry powder samples (AID 743044); assay type: functional, cell-based
[16] = cytotoxicity dependent on PAX8, dose response, cell-based, plate reader, dry powder (AID 743049); assay type: functional
[17] = cytotoxicity in OVCAR4 cells, dose response, cytotoxicity control for PAX8 inhibitor project, cell-based, plate reader, dry powder, SA11 (AID 743150); assay type: functional; details: OVCAR-4
[18] = cytotoxicity in OV-90 ovarian cancer cells, dose response, PAX8 inhibitor project, cell-based, plate reader, dry powder, SA8 (AID 743149); assay type: functional
[19] = control 3'UTR Renilla luciferase suppression, dose response, counter-screen for Shn3 inhibitor project, cell-based, Clone20-Shn3RL, cherry-picked (AID 624133); assay type: functional
[20] = Shn3 3'UTR reporter inhibitors, dose response, cell-based, Clone20 osteoblasts, firefly luciferase, cherry-picked (AID 624132); assay type: functional;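 also: firefly luciferase luminescence from reporter carrying the Shn3 3'UTR in osteoblasts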
[21] = HepG2 cell cytotoxicity, dose response, cytotoxicity control for Shn3 inhibitor project, CellTiter-Glo, cherry-picked (AID 624134); assay type: functional, cell-based
[22] = molecular target: COUP transcription factor 2 (Homo sapiens, UniProt P24468); test: Luminescence-based cell-based high throughput dose response assay to identify inhibitors of COUP-TFII (NR2F2).; assay type: functional;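 also: HEK293 cells transiently cotransfected with COUP-TFII expression vector and reporter; luciferase reporter luminescence driven by COUP-TFII from the pX2-168 reporter plasmid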
[23] = molecular target: NAD-dependent protein deacylase sirtuin-5, mitochondrial (Homo sapiens, UniProt Q9NXA8); test: SIRT5 desuccinylase inhibitors, dose response, biochemical, fluorescence imaging, cherry-pick, set 5 (AID 720591);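 also: desuccinylation of succinyl peptide AMC substrate read as fluorescence after trypsin release; potency of inhibitors that lower fluorescence and may act on trypsin instead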
[24] = YAP1 pathway inhibition via CTGF transcript levels, dose response, cell-based, DLD1 colon cancer, RT-qPCR, cherry-pick (AID 1053122); assay type: functional; details: Cancer cell lines
[25] = cytotoxicity in OVCAR8 ovarian cancer cells, dose response, PAX8 project, cell-based, plate reader, dry powder samples (AID 743197); assay type: functional; details: OVCAR-8
[26] = CTGF mRNA reduction under YAP1 overexpression, dose response, mechanism study for YAP1 pathway inhibitor project, DLD1 cells, RT-qPCR, cherry-pick (AID 1053127); assay type: functional, cell-based; details: DLD-1
[27] = RKO cell viability reduction, dose response, CellTiter-Glo luminescence (AID 1117322); assay type: functional
[28] = CellTiter-Glo luminescent dose response of DLD-1 viability loss (AID 1117352); assay type: functional
[29] = SNU-C1 cell viability reduction, dose response, CellTiter-Glo luminescence (AID 1117323); assay type: functional, cell-based
[30] = cytotoxicity toward HT-29 cells – cell-based, CellTiter-Glo luminescence, IC50, dose response (AID 1117330); assay type: functional
[31] = cytotoxicity toward Colo320 cells – cell-based, CellTiter-Glo luminescence, IC50, dose response (AID 1117334); assay type: functional; details: COLO 320
[32] = Concentration-dependent survival of SW480 colon cancer line, luminescence detection with CellTiter-Glo, half-maximal inhibitory concentration (AID 1117338); assay type: functional
[33] = cytotoxicity toward HCT116 cells – cell-based, CellTiter-Glo luminescence, IC50, dose response (AID 1117332); assay type: functional; details: HCT-116
[34] = HCT116 cell viability decrease, GSK3B pretreatment – CellTiter-Glo, IC50, dose response (AID 1117339); assay type: functional; details: HCT-116
[35] = molecular target: Heat shock protein HSP 90-alpha (Homo sapiens, UniProt P07900); test: Luminescence-based dose response biochemical high throughput screening assay for inhibitors of the Heat Shock Protein 90 (HSP90). [Related pubchem assays: 1831 (Summary AID.), 1846 (Confirmation screen.), 1789 (Primary screen.)]

Paired box protein Pax-8, sequence (Q06710 whole entry): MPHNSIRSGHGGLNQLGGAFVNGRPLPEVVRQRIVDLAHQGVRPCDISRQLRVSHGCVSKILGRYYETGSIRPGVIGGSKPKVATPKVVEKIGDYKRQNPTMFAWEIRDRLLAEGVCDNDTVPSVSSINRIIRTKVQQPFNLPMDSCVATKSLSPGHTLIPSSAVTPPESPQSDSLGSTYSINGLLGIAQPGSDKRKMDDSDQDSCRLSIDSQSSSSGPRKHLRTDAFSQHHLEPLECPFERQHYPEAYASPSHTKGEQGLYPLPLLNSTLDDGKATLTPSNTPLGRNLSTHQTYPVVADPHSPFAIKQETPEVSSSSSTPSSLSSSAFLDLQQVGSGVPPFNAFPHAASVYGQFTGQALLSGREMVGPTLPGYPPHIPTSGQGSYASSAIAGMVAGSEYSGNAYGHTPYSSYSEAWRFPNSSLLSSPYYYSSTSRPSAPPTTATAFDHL
Disintegrin and metalloproteinase domain-containing protein 17, sequence (P78536 whole entry, the tested form may be a part): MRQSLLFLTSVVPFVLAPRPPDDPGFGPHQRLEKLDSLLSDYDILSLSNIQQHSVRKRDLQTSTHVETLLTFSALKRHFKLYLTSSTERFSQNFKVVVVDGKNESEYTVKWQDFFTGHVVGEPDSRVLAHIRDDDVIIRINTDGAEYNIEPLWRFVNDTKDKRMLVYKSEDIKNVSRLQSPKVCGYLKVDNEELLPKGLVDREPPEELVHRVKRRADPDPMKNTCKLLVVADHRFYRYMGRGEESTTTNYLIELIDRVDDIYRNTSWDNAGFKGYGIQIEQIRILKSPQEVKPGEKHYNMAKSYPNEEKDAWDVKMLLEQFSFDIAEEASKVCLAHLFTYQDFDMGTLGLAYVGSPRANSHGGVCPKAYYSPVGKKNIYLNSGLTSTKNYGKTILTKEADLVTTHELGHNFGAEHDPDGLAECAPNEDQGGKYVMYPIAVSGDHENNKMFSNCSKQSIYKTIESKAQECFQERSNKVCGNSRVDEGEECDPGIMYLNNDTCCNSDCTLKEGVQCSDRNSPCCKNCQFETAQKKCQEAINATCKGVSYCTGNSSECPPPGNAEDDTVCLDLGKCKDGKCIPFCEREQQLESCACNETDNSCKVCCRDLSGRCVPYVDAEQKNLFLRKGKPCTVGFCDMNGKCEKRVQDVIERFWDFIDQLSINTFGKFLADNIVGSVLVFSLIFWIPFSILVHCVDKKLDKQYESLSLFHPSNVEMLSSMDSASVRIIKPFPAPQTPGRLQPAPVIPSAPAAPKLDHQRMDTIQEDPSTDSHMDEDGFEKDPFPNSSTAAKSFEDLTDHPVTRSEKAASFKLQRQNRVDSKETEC
NAD-dependent protein deacylase sirtuin-5, mitochondrial, sequence (Q9NXA8 whole entry): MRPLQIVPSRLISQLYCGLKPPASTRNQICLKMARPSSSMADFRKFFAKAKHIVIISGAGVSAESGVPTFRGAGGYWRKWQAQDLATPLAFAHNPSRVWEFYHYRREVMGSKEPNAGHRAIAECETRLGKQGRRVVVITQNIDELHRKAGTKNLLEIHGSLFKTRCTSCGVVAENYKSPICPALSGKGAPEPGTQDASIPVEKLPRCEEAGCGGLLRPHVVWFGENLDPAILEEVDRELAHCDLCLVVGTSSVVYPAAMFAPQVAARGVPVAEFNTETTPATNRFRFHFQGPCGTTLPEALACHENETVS
COUP transcription factor 2, sequence (P24468 whole entry): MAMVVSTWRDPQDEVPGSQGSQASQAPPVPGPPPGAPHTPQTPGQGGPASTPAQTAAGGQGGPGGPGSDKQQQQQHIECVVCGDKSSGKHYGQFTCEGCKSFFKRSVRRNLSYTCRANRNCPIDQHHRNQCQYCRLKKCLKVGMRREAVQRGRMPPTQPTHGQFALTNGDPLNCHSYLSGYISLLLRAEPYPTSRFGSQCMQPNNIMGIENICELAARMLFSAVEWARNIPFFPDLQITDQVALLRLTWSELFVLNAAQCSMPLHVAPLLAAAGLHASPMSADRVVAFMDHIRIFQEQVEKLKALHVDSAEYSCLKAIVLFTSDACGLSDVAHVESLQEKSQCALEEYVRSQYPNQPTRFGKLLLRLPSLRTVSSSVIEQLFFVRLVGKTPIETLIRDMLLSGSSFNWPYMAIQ

**Q.** With Cc1ccc([N+](=O)[O-])c2c1C(N1CC(C)OC(C)C1)C(C)(C)O2 (stereo not drawn) as the compound, how does the IC50 [1] read?
**A.** > 67.6 µM (inactive)

**Q.** What about the EC50 [2] of the same compound?
**A.** > 67.6 µM (inactive)

**Q.** Which IC50 [3] does the source give for CC(=O)c1ccc(NC(=O)c2ccc(S(=O)(=O)c3ccccc3)cc2)cc1 here?
**A.** > 83.3 µM (inactive)

**Q.** And the IC50 [4]?
**A.** > 109 µM (inactive)

**Q.** With O=C(COc1cc(O)c2c(=O)c3ccccc3oc2c1)OCc1ccccc1 as the compound, how does the IC50 [5] read?
**A.** > 100 µM (active)

**Q.** Which results are given for O=C(Nc1cccc(Cl)c1)c1cc(S(=O)(=O)NCCc2ccc(Cl)cc2)ccc1F?
**A.** IC50 [6]: > 69.5 µM (inactive); EC50 [7]: > 260 µM (inactive); IC50 [8]: > 7.72 µM (active)

**Q.** Which AC50 [9] does the source give for O=C(CCCN1C(=O)/C(=C\c2cccc(Br)c2)SC1=S)Nc1cccnc1 here?
**A.** 12.5 µM (active)

**Q.** And the AC50 [10]?
**A.** 17.9 µM (active)

**Q.** And the AC50 [11]?
**A.** 7.56 µM (active)

**Q.** And the AC50 [12]?
**A.** 31.6 µM (active)

**Q.** And the AC50 [13]?
**A.** 24.8 µM (active)

**Q.** And the AC50 [14]?
**A.** 30.3 µM (active)

**Q.** What about the AC50 [15] of the same compound?
**A.** 12 µM (active)

**Q.** And the AC50 [16]?
**A.** 12.1 µM (active)

**Q.** What about the AC50 [17] of the same compound?
**A.** 30.3 µM (active)

**Q.** And the AC50 [18]?
**A.** 25.7 µM (active)

**Q.** For Cn1c(=O)c2nc(CCCCCCCCc3nc4ccccc4[nH]3)[nH]c2n(C)c1=O, which AC50 [19] is on record?
**A.** 2.89 µM (active)

**Q.** What about the AC50 [20] of the same compound?
**A.** 3.98 µM (active)

**Q.** And the AC50 [21]?
**A.** 3.88 µM (active)

**Q.** And the IC50 [22]?
**A.** 7.5 µM (active)

**Q.** For CN(C)CCN1CCN(C2CN(Cc3cn(Cc4cccc(Cl)c4)nn3)S(=O)(=O)C2)CC1 (stereo not drawn), which AC50 [23] is on record?
**A.** > 30 µM (inactive)

**Q.** For O=C(Cc1ccncc1)N1CCCCN2[C@H](C1)[C@H](c1ccc(C#Cc3ccccc3F)cc1)[C@@H]2CO, which AC50 [9] is on record?
**A.** 10.3 µM (active)

**Q.** What about the AC50 [24] of the same compound?
**A.** 0.175 µM (active)

**Q.** What about the AC50 [25] of the same compound?
**A.** > 70 µM (inactive)

**Q.** And the AC50 [11]?
**A.** 7.15 µM (active)

**Q.** And the AC50 [15]?
**A.** 3.05 µM (active)

**Q.** And the AC50 [26]?
**A.** 0.102 µM (active)

**Q.** What does the source list for COC(=O)CCCCC(CCSS/C(CCO)=C(\C)N(C=O)Cc1cnc(C)nc1N)SC(C)=O (stereo not drawn)?
**A.** IC50 [27]: > 20 µM (inactive); IC50 [28]: > 20 µM (inactive); IC50 [29]: > 20 µM (inactive); IC50 [30]: > 20 µM (inactive); IC50 [31]: > 20 µM (inactive); IC50 [32]: > 20 µM (inactive); IC50 [33]: > 20 µM (inactive); IC50 [34]: > 20 µM (inactive)

**Q.** Which IC50 [35] does the source give for CC(=O)c1ccc(N=Nc2c(C)[nH]n(-c3ccccc3)c2=O)cc1 here?
**A.** 4.4 µM (active)
